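Five compound concentrations were applied to cells in 96-well plates for 48 hours; endpoints were derived by simple linear interpolation of the resulting dose-response curve. GI50: concentration for 50% inhibition of growth.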 Activity calls are given as the source filed them. Rule as the data show it: active = GI50 up to about 1.1 µM and inactive = higher. Residues, ends and D or L forms follow the SMILES beside them. *: point of attachment. Boc = CC(C)(C)OC(=O)*; OBn = c1ccc(CO*)cc1
Tests used:
Assay in all cases: growth of human tumour cells (NCI), 48 h
PC-3 = tested on: PC-3
EKVX = tested on: EKVX
HL-60 = tested on: HL-60
UACC-62 = tested on: UACC-62
OVCAR-5 = tested on: OVCAR-5
SNB-19 = tested on: SNB-19
M14 = tested on: M14
OVCAR-4 = tested on: OVCAR-4
NCI/ADR-RES = tested on: NCI/ADR-RES
OVCAR-3 = tested on: OVCAR-3
ACHN = tested on: ACHN
SK-MEL-2 = tested on: SK-MEL-2
HOP-92 = tested on: HOP-92
RXF 393 = tested on: RXF 393
KM12 = tested on: KM12
SW-620 = tested on: SW-620
DU-145 = tested on: DU-145
786-0 = tested on: 786-0
COLO 205 = tested on: COLO 205
NCI-H460 = tested on: NCI-H460

Measured: GI50

CCOC(=O)c1sc2nc(SC)nc(Nc3ccc4c(c3)OCCCO4)c2c1N
inactive: PC-3 20 µM | EKVX 10.6 µM | HL-60 > 100 µM | UACC-62 9.84 µM | OVCAR-5 > 100 µM | SNB-19 > 100 µM | M14 17.3 µM | OVCAR-4 5.47 µM | NCI/ADR-RES 8.93 µM | OVCAR-3 16.5 µM | ACHN 26.9 µM | SK-MEL-2 62.5 µM | HOP-92 61.1 µM | RXF 393 11.8 µM | KM12 24.2 µM | SW-620 17.5 µM | DU-145 31.8 µM | 786-0 19.3 µM | COLO 205 41.5 µM

c1cncc(C(Nc2cccc3cccnc23)Nc2cccc3cccnc23)c1
inactive: PC-3 > 100 µM | EKVX 69.7 µM | HL-60 36.3 µM | UACC-62 > 100 µM | OVCAR-5 > 100 µM | NCI-H460 > 100 µM | SNB-19 > 100 µM | M14 > 100 µM | NCI/ADR-RES > 100 µM | OVCAR-3 > 100 µM | ACHN > 100 µM | SK-MEL-2 > 100 µM | HOP-92 > 100 µM | RXF 393 77.3 µM | KM12 > 100 µM | SW-620 > 100 µM | DU-145 > 100 µM | 786-0 > 100 µM | COLO 205 > 100 µM

Cn1ccc(C(=O)N2CCSC2=S)c(OCc2ccccc2)c1=O
inactive: PC-3 > 100 µM | HL-60 54.8 µM | UACC-62 > 100 µM | NCI-H460 > 100 µM | SNB-19 > 100 µM | OVCAR-4 > 100 µM | NCI/ADR-RES > 100 µM | ACHN > 100 µM | SK-MEL-2 > 100 µM | HOP-92 79.1 µM | KM12 > 100 µM | SW-620 > 100 µM | DU-145 > 100 µM | 786-0 > 100 µM | COLO 205 > 100 µM

CC(C)CC(NC(=O)OC(C)(C)C)C(=O)NC(CC(=O)OCc1ccccc1)C(=O)OCc1ccccc1 (stereo not drawn) (Boc-Leu-Asp(OBn)-OBn; configuration not given here)
inactive: PC-3 29.4 µM | EKVX > 100 µM | HL-60 26.1 µM | UACC-62 21.9 µM | OVCAR-5 > 100 µM | NCI-H460 30.8 µM | SNB-19 29.4 µM | M14 19.2 µM | NCI/ADR-RES > 100 µM | OVCAR-3 22.4 µM | SK-MEL-2 63 µM | HOP-92 30.6 µM | RXF 393 26.1 µM | KM12 41.8 µM | SW-620 34.2 µM | DU-145 37.9 µM | 786-0 19 µM | COLO 205 43.2 µM

CC(=O)O[C@H]1C(=O)[C@@]2(C)[C@H]([C@H](OC(=O)c3ccc([N+](=O)[O-])cc3)[C@]3(O)C[C@H](OC(=O)[C@H](O)[C@@H](NC(=O)c4ccccc4)c4ccccc4)C(C)=C1C3(C)C)[C@]1(OC(C)=O)CO[C@@H]1C[C@@H]2O
inactive: PC-3 > 25 µM | EKVX > 25 µM | HL-60 > 25 µM | UACC-62 > 25 µM | OVCAR-5 > 25 µM | NCI-H460 > 25 µM | SNB-19 > 25 µM | M14 > 25 µM | OVCAR-4 > 25 µM | NCI/ADR-RES > 25 µM | ACHN > 25 µM | HOP-92 > 25 µM | RXF 393 > 25 µM | KM12 > 25 µM | SW-620 > 25 µM | DU-145 > 25 µM | 786-0 > 25 µM | COLO 205 > 25 µM

COc1ccc2c(c1OC)C(=O)O[C@@H]2[C@H]1c2cc3c(cc2CCN1C)OCO3
inactive: PC-3 > 100 µM | EKVX > 100 µM | HL-60 > 100 µM | UACC-62 > 100 µM | OVCAR-5 > 100 µM | NCI-H460 > 100 µM | SNB-19 > 100 µM | M14 > 100 µM | OVCAR-4 > 100 µM | NCI/ADR-RES > 100 µM | OVCAR-3 > 100 µM | ACHN > 100 µM | SK-MEL-2 > 100 µM | HOP-92 > 100 µM | KM12 > 100 µM | SW-620 > 100 µM | DU-145 > 100 µM | 786-0 > 100 µM | COLO 205 > 100 µM

Cc1ccc([Se](=C(C(=O)c2ccccc2)C(=O)c2ccccc2)c2ccc(C)cc2)cc1
inactive: PC-3 23.3 µM | HL-60 21.3 µM | UACC-62 20.7 µM | OVCAR-5 38.8 µM | NCI-H460 25.5 µM | SNB-19 27.4 µM | M14 33.6 µM | OVCAR-4 16.4 µM | NCI/ADR-RES 34.3 µM | OVCAR-3 20.6 µM | ACHN 24.5 µM | SK-MEL-2 30.8 µM | HOP-92 15 µM | RXF 393 68.1 µM | KM12 18.9 µM | SW-620 29.5 µM | DU-145 38.7 µM | 786-0 38.3 µM | COLO 205 17.3 µM

O=C(NCCC(F)(F)C(F)(F)C(F)(F)C(F)(F)F)NC1OC(CO)C(O)C(O)C1O (configuration not stated)
inactive: PC-3 > 100 µM | HL-60 > 100 µM | UACC-62 > 100 µM | OVCAR-5 > 100 µM | NCI-H460 > 100 µM | SNB-19 > 100 µM | M14 > 100 µM | OVCAR-4 > 100 µM | NCI/ADR-RES > 100 µM | OVCAR-3 > 100 µM | ACHN > 100 µM | SK-MEL-2 > 100 µM | HOP-92 > 100 µM | RXF 393 > 100 µM | KM12 > 100 µM | SW-620 > 100 µM | DU-145 > 100 µM | 786-0 > 100 µM | COLO 205 > 100 µM

COc1c(C)c(OC)c(C(=O)CC(C)C)c(OC)c1C
inactive: PC-3 52.4 µM | EKVX > 100 µM | HL-60 7.01 µM | UACC-62 > 100 µM | OVCAR-5 > 100 µM | SNB-19 24.9 µM | M14 > 100 µM | OVCAR-4 23.6 µM | NCI/ADR-RES 52.6 µM | OVCAR-3 > 100 µM | ACHN > 100 µM | SK-MEL-2 > 100 µM | HOP-92 > 100 µM | RXF 393 > 100 µM | KM12 74 µM | SW-620 > 100 µM | DU-145 > 100 µM | 786-0 > 100 µM | COLO 205 > 100 µM

N=c1oc2ccc(Cl)cc2cc1C(N)=O
inactive: PC-3 17.2 µM | HL-60 54.2 µM | UACC-62 16.8 µM | OVCAR-5 27 µM | NCI-H460 30.8 µM | SNB-19 26.7 µM | M14 27.5 µM | OVCAR-4 37.1 µM | NCI/ADR-RES 34.4 µM | OVCAR-3 18.2 µM | ACHN 24.4 µM | SK-MEL-2 13.3 µM | HOP-92 36 µM | RXF 393 29.6 µM | KM12 24.2 µM | SW-620 45.9 µM | DU-145 35.9 µM | 786-0 24.8 µM | COLO 205 36.6 µM

CC(C)(C)OC(=O)NC(Cc1ccc(OCc2ccccc2)cn1)C(=O)O (configuration not stated)
inactive: PC-3 > 100 µM | EKVX > 100 µM | HL-60 > 100 µM | OVCAR-5 > 100 µM | NCI-H460 > 100 µM | SNB-19 > 100 µM | OVCAR-4 > 100 µM | NCI/ADR-RES > 100 µM | OVCAR-3 > 100 µM | ACHN > 100 µM | HOP-92 > 100 µM | RXF 393 > 100 µM | KM12 > 100 µM | SW-620 > 100 µM | DU-145 > 100 µM | 786-0 > 100 µM | COLO 205 > 100 µM

CC(=O)OCC1OC(O[C@@H]2C[C@H]3C(C)(C)[C@H](OC(C)=O)CC[C@]3(C)[C@H]3CC[C@]4(C)C(=CC[C@H]4[C@@H](C)C[C@@H](O)[C@H](O)C(C)(C)O)[C@@]32C)C(O)C(O)C1O (some centres not stated)
inactive: PC-3 16.9 µM | EKVX 19.1 µM | HL-60 15.7 µM | UACC-62 16.1 µM | OVCAR-5 14.1 µM | NCI-H460 17.5 µM | SNB-19 15.1 µM | M14 21.3 µM | OVCAR-4 16 µM | NCI/ADR-RES > 100 µM | OVCAR-3 15.4 µM | ACHN 16.7 µM | SK-MEL-2 17.4 µM | HOP-92 17 µM | SW-620 17.9 µM | DU-145 17.3 µM | 786-0 16.4 µM | COLO 205 14 µM

Nc1nc(Cl)c2ncn(Cc3ccccc3CCl)c2n1
inactive: PC-3 15 µM | EKVX 15.9 µM | HL-60 3.72 µM | UACC-62 2.21 µM | OVCAR-5 19.9 µM | NCI-H460 5.66 µM | SNB-19 6.05 µM | M14 5.73 µM | OVCAR-4 2.48 µM | NCI/ADR-RES 4.52 µM | OVCAR-3 3.37 µM | ACHN 5.69 µM | SK-MEL-2 18.5 µM | HOP-92 6.52 µM | KM12 15.7 µM | SW-620 3.3 µM | DU-145 14.7 µM | 786-0 16.9 µM | COLO 205 5.05 µM

O=C(CCc1ccc(O)c(O)c1)NCCc1cc(O)cc(OCc2ccccc2)c1
inactive: PC-3 31.9 µM | EKVX 53.5 µM | HL-60 10.9 µM | UACC-62 31.3 µM | OVCAR-5 87.9 µM | NCI-H460 22.2 µM | SNB-19 6.22 µM | M14 32.1 µM | NCI/ADR-RES 43.5 µM | OVCAR-3 35.8 µM | ACHN 8.75 µM | SK-MEL-2 43.1 µM | HOP-92 36.5 µM | RXF 393 83.4 µM | KM12 29.7 µM | SW-620 25.9 µM | DU-145 43.3 µM | 786-0 45.7 µM | COLO 205 20.6 µM

Reference: ChEMBL document CHEMBL1201862, “PubChem BioAssay data set” (2004)
